# US20230190707A1, “COMPOSITIONS AND METHODS FOR ENHANCING CANCER IMMUNOTHERAPY” (FRED HUTCHINSON CANCER CENTER, priority 2020, published 2023)
# Where two headings read alike, the source gives them in different places.
# Assays:
# donor T cells = test: CFSE adoptive T cell transfer with in vivo splicing modulator treatment
# Protocol: Splenic T cells were obtained from B6 or CD45.1 donors by CD5 positive selection (Miltenyi Biotec, Cat. 130-049-301), labeled with CellTrace CFSE (ThermoFisher Cat. C34570) at 10 μM, and adoptively transferred by tail vein injection into lethally irradiated B6, Balb/c, or LP/J recipients, with […] labeled donor T cells transferred per recipient. All recipients were irradiated on day −1 prior to adoptive T cell transfer with 7 Gy as a single fraction and continuously received splicing inhibitor drugs or vehicle control at the indicated doses, from day −1 until day of sacrifice, with the initial dose of drug at least 4 hours after lethal irradiation. Indisulam and MS-023 were solubilized for in vivo administration and animals were treated as above. Pladienolide B (Tocris, Cat. 6070) and GEX1A (Cayman Chemicals, Cat. 25136) were both dissolved in vehicle (10% ethanol and 4% Tween-80 in sterile PBS) and administered i.p., with pladienolide B dosed at 10 mg/kg every other day, and GEX1A dosed at 1.25 mg/kg every four days. For in vivo use, EPZ015666 was dissolved in DMSO and solubilized in 0.5% methylcellulose in water to 20 mg/mL; animals were treated daily with 200 mg/kg by oral gavage.
# [1] = tested on: bone marrow hematopoietic stem and progenitor cells; test: M3434 methylcellulose colony assay; type: cell-based, mouse
# Protocol: 25,000 red blood cell-lysed bone marrow mononuclear cells from C57BL/6 mice were plated in duplicates or triplicates in each well of a non-tissue-culture treated 6 well plate with M3434 methylcellulose media in the presence of splicing drugs at the indicated concentrations as per manufacturer's instructions (StemCell Technologies, Cat. 03434) and incubated for seven days prior to quantification of colonies by manual microscopy.
# CD5^+ splenic T cells = test: Anti-CD3/CD28 T cell activation and proliferation (CFSE); type: cell-based, mouse; conditions: three days of continuous drug exposure
# Protocol: Cell lines were grown with half-log10 concentrations of the indicated drug in 4 to 8 technical replicates under standard conditions until the control condition (DMSO or vehicle) was confluent by microscopy. For tumor cell lines, viable cells were quantified via the CellTiter-Glo® assay (Promega Cat. G7573) as per manufacturer instructions. For the ex vivo proliferation of T cells, viable cells were instead quantified via flow cytometry using counting beads. The percentage or number of viable cells with drug treatment was calculated relative to DMSO control (as 100%). […] For absolute cell number, Annexin V+, CD25+, and PD1+ flow cytometry data presented in Figure S4, dose-response models and IC50 values were computed using the R language's dre package (Ritz, C., et al. (2015). Dose-Response Analysis Using R. PLoS One 10, e0146021).
# (§1) Plates were coated with 10 μg/mL anti-CD3 (clone 145-2C11, Biolegend Cat. 100302) and 2 μg/mL anti-CD28 (clone 37.51, Biolegend Cat. 102102) in PBS overnight at 4° C. and washed twice with cold PBS prior to use. CFSE-labeled CD5-selected splenic T cells from naïve C57BL/6J mice were obtained identically as for adoptive cell transfer, and 5×10^4 cells incubated with coated plates in the presence of splicing inhibitor drugs at the indicated concentrations, followed by analysis by standard flow cytometry on day 3. Of note, for RNA-seq analyses, T cells were not labeled with CFSE, and underwent activation for 4 days (96 hours) in the presence of various splicing modulator drugs to harmonize experimental conditions with RNA-seq analyses of tumors treated with splicing inhibitors. For the RNA-seq experiments only, T cells in all conditions were also incubated with IL-2 at 50 U/mL to maximize viability and yield.
# [2] = tested on: T cells stimulated with anti-CD3 and CD28 antibodies; test: Gene expression program of activated T cells (RNA-seq); type: cell-based, mouse; conditions: ex vivo anti-CD3 and CD28 stimulation in presence of drug
# Protocol: as §1
# Bulk lung and colon were homogenized using a Qiagen TissueRuptor. For all tissues and cell types, RNA was extracted using an RNeasy kit (Qiagen, Frederick, Md.) and quantified using a NanoDrop 8000 (ThermoFisher Scientific). A minimum of 500 ng of high-quality RNA (as determined by Agilent Bioanalyzer) per sample or replicate was used for library preparation. Poly(A)-selected, strand-specific (dUTP method) Illumina libraries were prepared with a modified TruSeq protocol and sequenced on the Illumina HiSeq 2000 (˜100M 2×101 bp paired-end reads per sample or replicate).
Compound,"in vivo T cell proliferation or activation in response to alloantigen (donor T cells; CD45.1 T cells into irradiated Balb/c or LP/J recipients, daily treatment)","hematopoiesis (colony formation) ([1]; micromolar doses, pladienolide B at nanomolar concentrations)","IC50 values, T cell proliferation following stimulation (in words) (CD5^+ splenic T cells)",genes normally upregulated upon T cell activation [2],"in vivo T cell proliferation or activation in response to alloantigen (donor T cells; mouse, in vivo)",hematopoiesis (colony formation) [1]
pladienolide B,markedly suppressed T cell proliferation,even more profoundly suppressed hematopoiesis,low nanomolar range,markedly attenuated,,
"CO[C@H]([C@@H](C)[C@H]1O[C@]1(C)C[C@H](C)/C=C/C=C(\C)[C@H]1O[C@@H](CC(=O)O)CC[C@@H]1C)[C@@H](C)O [GEX1A, herboxidiene]",,,low nanomolar range,,,
O=C(NC[C@H](O)CN1CCc2ccccc2C1)c1cc(NC2COC2)ncn1 [EPZ015666],,,,,minimal impairment,suppressed hematopoiesis
